EC50, AC50 and IC50 data for 22 compounds are collected here from ChEMBL document CHEMBL1201862, “PubChem BioAssay data set” (2004).

Calls of active or inactive are those of the source.

In one test the target is T1, Protein RecA (Mycobacterium tuberculosis, UniProt P9WHJ3).
T1 sequence (P9WHJ3 whole entry): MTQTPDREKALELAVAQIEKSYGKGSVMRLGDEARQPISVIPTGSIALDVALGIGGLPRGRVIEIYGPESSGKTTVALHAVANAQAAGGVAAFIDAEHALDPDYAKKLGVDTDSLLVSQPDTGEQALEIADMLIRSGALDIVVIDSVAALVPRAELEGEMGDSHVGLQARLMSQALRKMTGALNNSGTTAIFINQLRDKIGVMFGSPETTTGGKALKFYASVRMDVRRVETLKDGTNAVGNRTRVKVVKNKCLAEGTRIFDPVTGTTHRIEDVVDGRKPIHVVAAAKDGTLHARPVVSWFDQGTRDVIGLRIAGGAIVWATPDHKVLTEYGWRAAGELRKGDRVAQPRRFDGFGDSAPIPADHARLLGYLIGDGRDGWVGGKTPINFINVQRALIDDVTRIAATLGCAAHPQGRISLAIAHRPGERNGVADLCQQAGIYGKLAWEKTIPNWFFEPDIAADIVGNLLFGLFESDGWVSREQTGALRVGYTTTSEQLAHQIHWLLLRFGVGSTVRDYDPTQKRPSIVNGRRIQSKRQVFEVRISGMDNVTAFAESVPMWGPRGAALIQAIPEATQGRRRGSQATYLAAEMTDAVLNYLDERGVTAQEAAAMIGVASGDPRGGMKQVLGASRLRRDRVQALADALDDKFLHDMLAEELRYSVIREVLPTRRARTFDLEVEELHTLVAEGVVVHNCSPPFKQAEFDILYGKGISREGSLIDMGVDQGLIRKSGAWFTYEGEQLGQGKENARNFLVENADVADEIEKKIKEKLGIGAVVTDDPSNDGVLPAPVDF
In words: Fluorescence Cell-Free Homogeneous Dose Retest to Identify Inhibitors of RecA-Intein Splicing Activity. [Related pubchem assays (depositor defined):AID2097, AID2223, AID489010, AID492950]. In kind it is functional.

For test [1], the target named is T2, Replicative DNA helicase DnaB (Mycobacterium tuberculosis, UniProt P9WMR3).
T2 sequence (P9WMR3 whole entry): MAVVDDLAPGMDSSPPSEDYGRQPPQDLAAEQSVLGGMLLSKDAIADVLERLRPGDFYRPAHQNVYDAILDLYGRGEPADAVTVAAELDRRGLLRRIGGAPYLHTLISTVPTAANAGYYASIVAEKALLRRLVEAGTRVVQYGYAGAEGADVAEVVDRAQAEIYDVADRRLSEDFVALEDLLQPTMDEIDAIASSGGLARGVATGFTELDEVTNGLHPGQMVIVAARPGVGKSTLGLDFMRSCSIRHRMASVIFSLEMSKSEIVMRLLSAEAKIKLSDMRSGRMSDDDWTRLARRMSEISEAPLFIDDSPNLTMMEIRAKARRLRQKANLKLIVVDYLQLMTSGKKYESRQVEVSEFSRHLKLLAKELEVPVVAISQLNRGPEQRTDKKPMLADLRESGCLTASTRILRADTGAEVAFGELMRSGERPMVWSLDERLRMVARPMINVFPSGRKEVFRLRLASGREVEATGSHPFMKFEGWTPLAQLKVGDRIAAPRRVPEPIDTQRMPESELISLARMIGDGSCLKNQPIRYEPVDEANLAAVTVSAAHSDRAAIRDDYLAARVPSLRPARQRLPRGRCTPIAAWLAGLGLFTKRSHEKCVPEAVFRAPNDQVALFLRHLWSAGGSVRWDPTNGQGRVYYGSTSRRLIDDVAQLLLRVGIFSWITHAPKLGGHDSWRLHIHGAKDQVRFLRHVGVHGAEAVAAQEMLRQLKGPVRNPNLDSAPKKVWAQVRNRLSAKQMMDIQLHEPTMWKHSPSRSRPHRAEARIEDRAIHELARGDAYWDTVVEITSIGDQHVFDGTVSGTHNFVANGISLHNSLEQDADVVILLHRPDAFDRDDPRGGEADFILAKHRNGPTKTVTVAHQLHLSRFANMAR
The experiment in a line: DnaB intein splicing inhibitors, dose response, biochemical, cell-free fluorescence (AID 449749). In kind it is functional.

Test [2] has as its target T3, Fatty acid synthase (Homo sapiens, UniProt P49327). In words: FAS thioesterase domain inhibitors, dose response, biochemical, kinetic fluorescence intensity (AID 624326).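 Note: rate of fluorescence rise from hydrolysis of a fluorogenic O-methyl fluorescein ester substrate.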 In kind it is functional.
The target in test [3] is T3, Fatty acid synthase. In words: FAS thioesterase domain inhibitors, dose response, biochemical, endpoint fluorescence intensity, uHTS hits (AID 624327).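 Note: fluorescence from hydrolysis of an O-methyl fluorescein acyl ester substrate by the enzyme.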 In kind it is functional.
Test [4] deals with T4, Short transient receptor potential channel 4 (Mus musculus, UniProt Q9QUQ5).
T4 sequence (Q9QUQ5 whole entry): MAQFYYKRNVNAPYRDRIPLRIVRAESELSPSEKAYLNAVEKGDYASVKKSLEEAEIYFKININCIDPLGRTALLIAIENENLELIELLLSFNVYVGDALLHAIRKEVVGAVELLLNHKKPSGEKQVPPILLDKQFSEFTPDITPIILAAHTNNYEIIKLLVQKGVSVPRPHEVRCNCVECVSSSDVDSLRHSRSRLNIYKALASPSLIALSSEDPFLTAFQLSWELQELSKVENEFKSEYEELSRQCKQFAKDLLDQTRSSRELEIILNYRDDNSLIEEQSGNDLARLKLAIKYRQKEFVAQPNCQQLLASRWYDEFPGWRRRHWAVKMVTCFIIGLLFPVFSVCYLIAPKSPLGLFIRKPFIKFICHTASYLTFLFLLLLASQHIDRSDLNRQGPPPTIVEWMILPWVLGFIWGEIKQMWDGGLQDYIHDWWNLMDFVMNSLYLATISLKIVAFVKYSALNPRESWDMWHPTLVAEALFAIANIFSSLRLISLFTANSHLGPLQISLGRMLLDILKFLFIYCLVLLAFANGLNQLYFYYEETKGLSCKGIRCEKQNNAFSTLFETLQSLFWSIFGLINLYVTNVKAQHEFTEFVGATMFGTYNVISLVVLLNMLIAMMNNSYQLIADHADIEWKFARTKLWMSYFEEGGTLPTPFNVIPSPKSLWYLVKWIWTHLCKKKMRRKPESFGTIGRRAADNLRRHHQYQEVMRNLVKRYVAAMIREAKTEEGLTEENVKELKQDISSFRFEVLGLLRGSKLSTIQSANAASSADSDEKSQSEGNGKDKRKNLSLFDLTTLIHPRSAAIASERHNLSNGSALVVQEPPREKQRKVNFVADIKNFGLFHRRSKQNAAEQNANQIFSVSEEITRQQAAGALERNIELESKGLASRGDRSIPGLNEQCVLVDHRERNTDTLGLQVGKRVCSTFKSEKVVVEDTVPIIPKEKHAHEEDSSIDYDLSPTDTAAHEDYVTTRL
In words: mouse TRPC4 channel activators, dose response, cell-based, HEK293 TRPC4/mu-opioid, Fluo-4 calcium (AID 434937). In kind it is functional.

Test [5] has as its target FAD-linked sulfhydryl oxidase ALR (Homo sapiens, UniProt P55789). The experiment in a line: inhibitors of human ALR sulfhydryl oxidase, dose response, biochemical, H2O2 detection, luminescence, cherry-pick (AID 493248).
Test [6] can be described thus: cells. In kind it is functional, cell-based.
Test [7] in a line: cells. In kind it is functional, cell-based. The source holds these as a separate data set.
Test [8] can be described thus: inhibitors of intracellular T. cruzi replication, confirmation, NIH3T3 host cells, beta-gal luminescence (AID 2044).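 Note: intracellular parasites grown in NIH/3T3 mouse fibroblasts as host cells; luminescent beta-galactosidase reporter signal from transgenic T. cruzi replicating inside host cells; inhibitors lower the luminescence signal.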 In kind it is functional, cell-based.
Test [9] is described as follows: cytotoxicity toward NIH3T3 fibroblasts, dose response, counter-screen, cell-based, ATP luminescence, mouse fibroblasts (AID 2010).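 Note: cells exposed to compound for about 90 hours before reading.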 In kind it is functional. (In general: Counterscreens check selectivity or assay interference.)
Test [10] in a line: Luminescence Cell-Based Dose Retest to Confirm Inhibitors of Cancer Stem Cells. [Related pubchem assays (depositor defined):AID2717, AID2721]. The settings on record: Homo sapiens. In kind it is functional.
For another test, the system named is Streptococcus. The experiment in a line: Group A Streptococcus viability loss, dose response, counter-screen for streptokinase expression inhibitor project, luminescence, BacTiterGlo (AID 1915).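 Note: potency for reduction of bacterial viability or growth.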 In kind it is functional, organism-based.
Test [11] has as its system Streptococcus sp. 'group A'. The experiment in a line: growth inhibition of control SK(-) GAS strain, dose response, counter-screen for streptokinase expression inhibitor project, luminescence, kanamycin, BacTiterGlo, confirmation (AID 1900). In kind it is functional, organism-based.
Another test has as its target Cytochrome P450 2C9 (Homo sapiens, UniProt P11712).
Test [12] in a line: Shn3 3'UTR reporter inhibitors, dose response, cell-based, Clone20 osteoblasts, firefly luciferase, cherry-picked (AID 624132).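 Note: firefly luciferase luminescence from reporter carrying the Shn3 3'UTR in osteoblasts.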 In kind it is functional.
The nature of test [13]: control 3'UTR Renilla luciferase suppression, dose response, counter-screen for Shn3 inhibitor project, cell-based, Clone20-Shn3RL, cherry-picked (AID 624133). In kind it is functional.
A short description of test [14]: HepG2 cell cytotoxicity, dose response, cytotoxicity control for Shn3 inhibitor project, CellTiter-Glo, cherry-picked (AID 624134). In kind it is functional, cell-based. (In ATP-based viability assays light output follows the ATP content of the culture.)
A further test concerns INS1. The experiment in a line: beta cell apoptosis inhibitors, cytokine rescue, dose response, luminescence, retest (AID 449756).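 Note: cell death triggered by IL-1 beta plus TNF-alpha plus IFN-gamma mixture; protective hits raise ATP signal compared with cytokine alone wells.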 In kind it is functional, cell-based. To be noted: Rattus norvegicus.

T3 sequence (P49327 whole entry, the tested form may be a part): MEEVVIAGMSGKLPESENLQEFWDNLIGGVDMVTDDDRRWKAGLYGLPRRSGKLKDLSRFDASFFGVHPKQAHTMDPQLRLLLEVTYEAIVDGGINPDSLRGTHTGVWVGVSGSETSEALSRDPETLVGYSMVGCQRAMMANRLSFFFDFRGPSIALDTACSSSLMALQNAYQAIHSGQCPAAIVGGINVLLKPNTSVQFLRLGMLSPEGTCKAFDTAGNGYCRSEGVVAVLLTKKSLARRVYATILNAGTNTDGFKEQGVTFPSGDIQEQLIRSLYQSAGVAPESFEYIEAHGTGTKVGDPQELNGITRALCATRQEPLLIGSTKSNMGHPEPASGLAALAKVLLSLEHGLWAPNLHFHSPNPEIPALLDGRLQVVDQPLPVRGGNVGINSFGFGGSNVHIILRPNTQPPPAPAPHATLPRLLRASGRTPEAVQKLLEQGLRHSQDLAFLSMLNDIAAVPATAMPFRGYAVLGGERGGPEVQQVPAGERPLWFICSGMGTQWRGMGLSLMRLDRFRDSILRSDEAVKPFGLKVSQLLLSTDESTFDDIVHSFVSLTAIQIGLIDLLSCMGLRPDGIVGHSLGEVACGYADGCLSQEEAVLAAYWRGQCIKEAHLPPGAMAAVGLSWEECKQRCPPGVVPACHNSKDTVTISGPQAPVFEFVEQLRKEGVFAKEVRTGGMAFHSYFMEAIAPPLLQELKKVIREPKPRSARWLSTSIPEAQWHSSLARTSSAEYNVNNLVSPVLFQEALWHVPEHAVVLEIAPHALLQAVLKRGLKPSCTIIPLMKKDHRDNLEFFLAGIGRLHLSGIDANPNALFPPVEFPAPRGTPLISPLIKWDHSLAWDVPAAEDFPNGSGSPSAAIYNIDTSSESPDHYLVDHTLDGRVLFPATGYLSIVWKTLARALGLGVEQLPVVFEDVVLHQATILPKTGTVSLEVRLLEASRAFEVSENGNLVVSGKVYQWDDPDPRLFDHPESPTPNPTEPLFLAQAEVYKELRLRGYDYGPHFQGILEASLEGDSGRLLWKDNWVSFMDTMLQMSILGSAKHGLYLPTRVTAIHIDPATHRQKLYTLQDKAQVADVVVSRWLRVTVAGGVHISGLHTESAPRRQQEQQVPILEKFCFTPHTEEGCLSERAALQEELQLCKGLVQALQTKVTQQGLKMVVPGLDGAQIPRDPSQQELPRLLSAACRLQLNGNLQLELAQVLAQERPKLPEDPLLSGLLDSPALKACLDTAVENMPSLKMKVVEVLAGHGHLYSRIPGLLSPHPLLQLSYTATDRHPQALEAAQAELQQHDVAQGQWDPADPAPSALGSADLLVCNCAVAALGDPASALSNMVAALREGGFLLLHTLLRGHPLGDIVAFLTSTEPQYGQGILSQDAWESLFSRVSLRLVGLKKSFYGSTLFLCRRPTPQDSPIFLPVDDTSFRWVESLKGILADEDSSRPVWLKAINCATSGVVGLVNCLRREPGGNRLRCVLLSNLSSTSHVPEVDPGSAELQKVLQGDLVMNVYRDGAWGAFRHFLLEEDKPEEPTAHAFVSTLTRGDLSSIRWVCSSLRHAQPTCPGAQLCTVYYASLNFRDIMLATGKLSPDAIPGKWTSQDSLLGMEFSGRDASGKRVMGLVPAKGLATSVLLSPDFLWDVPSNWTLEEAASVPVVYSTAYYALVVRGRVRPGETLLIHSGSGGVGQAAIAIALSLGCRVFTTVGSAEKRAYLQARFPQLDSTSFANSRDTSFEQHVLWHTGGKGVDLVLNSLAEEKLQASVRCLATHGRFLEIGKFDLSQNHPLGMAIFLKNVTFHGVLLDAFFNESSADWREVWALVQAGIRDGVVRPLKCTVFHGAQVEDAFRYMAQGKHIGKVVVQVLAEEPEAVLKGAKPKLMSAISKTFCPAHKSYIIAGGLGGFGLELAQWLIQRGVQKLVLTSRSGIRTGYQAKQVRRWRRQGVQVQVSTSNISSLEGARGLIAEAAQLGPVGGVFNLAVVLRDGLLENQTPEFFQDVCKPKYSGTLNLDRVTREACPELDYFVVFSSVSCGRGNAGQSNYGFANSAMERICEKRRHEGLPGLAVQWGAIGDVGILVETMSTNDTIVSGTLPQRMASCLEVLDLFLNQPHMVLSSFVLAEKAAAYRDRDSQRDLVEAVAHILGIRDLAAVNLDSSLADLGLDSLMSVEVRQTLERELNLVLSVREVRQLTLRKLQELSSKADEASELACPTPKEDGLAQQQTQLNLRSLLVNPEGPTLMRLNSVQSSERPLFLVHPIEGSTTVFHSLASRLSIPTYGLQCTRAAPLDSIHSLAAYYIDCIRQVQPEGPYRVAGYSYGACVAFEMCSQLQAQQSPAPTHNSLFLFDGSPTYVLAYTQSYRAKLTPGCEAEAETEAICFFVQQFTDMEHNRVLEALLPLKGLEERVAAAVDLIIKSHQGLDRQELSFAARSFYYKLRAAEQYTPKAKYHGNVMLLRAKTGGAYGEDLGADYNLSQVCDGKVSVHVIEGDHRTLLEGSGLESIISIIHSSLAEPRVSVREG
FAD-linked sulfhydryl oxidase ALR, sequence (P55789 whole entry): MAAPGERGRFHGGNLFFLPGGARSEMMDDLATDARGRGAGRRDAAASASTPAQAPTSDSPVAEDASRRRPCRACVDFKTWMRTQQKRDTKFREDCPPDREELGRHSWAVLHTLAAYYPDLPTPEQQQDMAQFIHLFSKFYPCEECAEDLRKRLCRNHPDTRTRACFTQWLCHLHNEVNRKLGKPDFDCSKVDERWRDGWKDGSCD
Cytochrome P450 2C9, sequence (P11712 whole entry): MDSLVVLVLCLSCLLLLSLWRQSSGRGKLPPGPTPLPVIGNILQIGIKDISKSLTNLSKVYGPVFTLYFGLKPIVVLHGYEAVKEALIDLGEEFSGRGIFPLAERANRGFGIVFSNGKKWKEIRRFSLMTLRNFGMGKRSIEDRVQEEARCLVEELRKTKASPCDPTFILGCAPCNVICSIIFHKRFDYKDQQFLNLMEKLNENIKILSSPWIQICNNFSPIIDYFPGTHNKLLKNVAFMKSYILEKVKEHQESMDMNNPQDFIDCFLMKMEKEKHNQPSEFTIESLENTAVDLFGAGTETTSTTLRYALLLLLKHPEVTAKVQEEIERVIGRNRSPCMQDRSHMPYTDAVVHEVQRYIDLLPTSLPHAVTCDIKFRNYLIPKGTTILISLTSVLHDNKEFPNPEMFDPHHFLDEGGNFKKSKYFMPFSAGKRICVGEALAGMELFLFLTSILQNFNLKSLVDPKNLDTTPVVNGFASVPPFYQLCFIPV

Consider `CCCCCCOC(=O)c1ccccc1NC(=O)/C=C/C(=O)O`, for which the concentration giving a half-maximal response (EC50) on Protein RecA was 3.41 µM (active). Moreover, the AC50 in test [1] is > 380 µM (inactive).

For the compound `CC(C)(C)C(=O)Nc1nc(C2CCCN2S(=O)(=O)c2ccc(Cl)cc2)cs1` (stereo not given), the IC50 was 8.77 µM (active) on Fatty acid synthase [2] and 9.08 µM (active) on Fatty acid synthase [3].

Take `CCN1CCN(Cc2cc(Br)cc(Br)c2O)CC1`: the concentration for a half-maximal effect (EC50) in [4] is 0.0667 µM (active). Moreover, the AC50 in test [5] was 11.2 µM (active).

For the compound `O=C(NC1=NCCS1)c1cccc(NC(=O)c2ccco2)c1`, the EC50 in the test “cells [6]” and in “cells [7]” was > 350 µM (not active) each time.

In the case of `Cc1ccc(NC(=S)N(Cc2cccs2)Cc2cc3cccc(C)c3nc2O)cc1`, the EC50 in “cells [6]” and in the test “cells [7]” was > 350 µM (not active) in each case.

On to `CCN1CCN(CCCOc2ccc(-c3ccccc3)cc2)CC1`, for which the EC50 in [8] was 0.799 µM (active); in the test “cells [6]”, > 350 µM (not active); in test [9], 4.6 µM (active); in “cells [7]” it was > 350 µM (not active). In [10], the AC50 is 4.69 µM (active).

Turning to `O=C(COC(=O)c1cc([N+](=O)[O-])ccc1N1CCOCC1)NCc1ccc(Cl)cc1Cl`, the results for the IC50 at Fatty acid synthase [2] and at Fatty acid synthase [3] were 1.05 µM (active) and 0.912 µM (active), respectively.

As for `CC1=NNC(=O)C1C(c1ccc(Cl)cc1)C(C#N)C#N` (stereo not given), the EC50 on Protein RecA is 3.26 µM (active). Besides, in [1], the AC50 is 7.84 µM (active).

Turning to `CCn1c(=O)c(C(=O)NNC(=O)c2ccccc2F)c(O)c2ccccc21`, the EC50 is 11.5 µM (active) in the test on Streptococcus, 4.54 µM (active) in test [11] and 6.68 µM (active) in test [4].

On to `O=C(NNS(=O)(=O)c1ccc([N+](=O)[O-])cc1)c1cnn(-c2ccccc2)c1-n1cccc1`, for which the IC50 is 4.35 µM (active) at Fatty acid synthase [2] and 4.5 µM (active) on Fatty acid synthase [3].

In the case of `Cc1ccc(Sc2c([N+](=O)[O-])ncn2C)cc1`, the AC50 was 1.58 µM (inconclusive) on Cytochrome P450 2C9, 0.27 µM (active) in [5] and 112 µM (active) in [1]. In addition, the 50% effective concentration (EC50) at Protein RecA is 34.6 µM (active).

As for `CC1(C)CC(NC(=O)CCC2CCCC2)CC(C)(C)N1`, the EC50 in the test “cells [6]” and in “cells [7]” was > 350 µM (not active) throughout.

Take `O=C(NC(=S)Nc1ccccn1)c1cc(-c2ccccc2)nc2ccccc12`: the EC50 in the test “cells [6]” was > 350 µM (not active); in the test “cells [7]” it was 47.1 µM (active).

Turning to `CCCc1n[nH]c2c1C(c1ccccc1OC)C(C#N)=C(N)O2` (stereo not given), at Protein RecA, the EC50 was 2.07 µM (active). Further, the AC50 in test [1] was 15.9 µM (active).

As for `Cc1ccc(C(=O)NCCNc2ncc(C(F)(F)F)cc2Cl)cc1[N+](=O)[O-]`, the figures for the IC50 on Fatty acid synthase [2] and at Fatty acid synthase [3] were 9.8 µM (active) and 8.99 µM (active), respectively.

As for `Cc1ccc(Oc2ncc(CN3CC(C)OC(C)C3)s2)cc1` (stereo not given), the EC50 in the test “cells [6]” and in the test “cells [7]” was > 350 µM (not active) in each case.

For the compound `Clc1cc(Cl)cc(C2=NC(Cc3ccccc3)CO2)c1` (stereo not given), the EC50 in test [4] is 5.31 µM (active).

For the compound `CN(C)C(CNC(=O)Nc1cccc(Cl)c1)c1cccnc1` (stereo not given), the concentration giving a half-maximal response (EC50) in test [4] is 0.0267 µM (active).

On to `O=S(=O)(Nc1cccc(-n2cnnn2)c1)c1cnc(Cl)c(Cl)c1`, for which the IC50 is 8.01 µM (active) at Fatty acid synthase [2] and 5.37 µM (active) on Fatty acid synthase [3].

Consider `COc1ccccc1CNc1nc(NCc2ccc(C(C)C)cc2)c2sccc2n1`, for which the concentration at half-maximal activity (AC50) was 6.81 µM (active) in [12], 10.5 µM (active) in [13] and 39.4 µM (active) in test [14].

Consider `O=C(N/N=C\c1c(O)ccc2ccccc12)c1ccc(Cn2cccn2)o1`, for which the AC50 in the test on INS1 is 1.23 µM (active). The EC50 in the test “cells [6]” is 82 µM (active); in the test “cells [7]” it was > 350 µM (not active).

Turning to `CC1(C)CC(=O)C=C(c2ccc(COC(=O)c3ccccc3)cc2)C1=O`, the values for the IC50 at Fatty acid synthase [2] and on Fatty acid synthase [3] were 3.75 µM (active) and 7.19 µM (active), respectively.

Broadly, the EC50 is the concentration at which the effect is half-maximal. Usually AC50 stands for the concentration giving half of the maximal activity seen. As a reminder, the IC50 is the concentration needed to halve the response being measured.
